# Laboratory results from patent US12509451B2, “Heteroaryl amide inhibitors of CD38” (NAPA THERAPEUTICS LTD., priority 2020, dated 2025).
# Key:
# [1] = molecular target: T1, human CD38 enzyme in primary human CD4+ T cells (Homo sapiens, UniProt P28907); assay: NAD+ hydrolase activity assay in primary human activated CD4+ T cells (Assay 7); assay type: cell-based; details: primary human CD4+ T cells activated with anti-CD3/CD28
# T1 construct: whole primary human CD4+ T cells (from healthy donors); endogenous in cells
# T1 sequence (P28907 1-300): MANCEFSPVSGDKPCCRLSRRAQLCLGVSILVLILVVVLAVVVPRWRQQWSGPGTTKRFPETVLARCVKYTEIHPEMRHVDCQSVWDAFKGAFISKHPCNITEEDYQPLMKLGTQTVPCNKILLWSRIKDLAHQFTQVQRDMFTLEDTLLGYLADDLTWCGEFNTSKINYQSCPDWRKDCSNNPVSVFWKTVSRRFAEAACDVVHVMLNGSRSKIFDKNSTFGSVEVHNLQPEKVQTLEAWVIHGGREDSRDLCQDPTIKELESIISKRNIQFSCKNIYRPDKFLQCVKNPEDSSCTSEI
# Experimental: The in vitro potency of Compound 35 against the human CD38 enzyme was determined by a fluorescence-based NAD+ hydrolase activity assay using the NAD+ analog nicotinamide 1,N^6-etheno-adenine dinucleotide (εNAD+) as substrate. The assay utilized: 1) whole primary human CD4+ T cells (from healthy donors) activated with anti-CD3/CD28 antibodies and expressing human CD38; or II) whole primary human macrophages (from healthy donors) stimulated with LPS to polarize in a pro-inflammatory M1 state expressing human CD38. The cells were incubated in the presence of 8 different concentrations of Compound 35 for 10 minutes and the reaction was started adding the substrate εNAD+. The emission of fluorescence was measured at 410-20 nm at 37° C. every minute for 1 hr. The NAD+ hydrolase activity was calculated as the slope of the linear portion of the fluorescence-time curve and used to calculate the IC50 value.
# [2] = molecular target: T2, CD38 (Mus musculus, UniProt P56528); assay: In vivo efficacy against CD38 in aged mice, single oral dose, liver NAD+ metabolites
# T2 construct: aged mice (male C57BL6/J, 22 months old) were fasted for 4 hr; from tissue; host or cells: C57BL6/J mice (aged, DIO obese or LPS-challenged); liver, spleen, plasma
# T2 sequence (P56528 1-304): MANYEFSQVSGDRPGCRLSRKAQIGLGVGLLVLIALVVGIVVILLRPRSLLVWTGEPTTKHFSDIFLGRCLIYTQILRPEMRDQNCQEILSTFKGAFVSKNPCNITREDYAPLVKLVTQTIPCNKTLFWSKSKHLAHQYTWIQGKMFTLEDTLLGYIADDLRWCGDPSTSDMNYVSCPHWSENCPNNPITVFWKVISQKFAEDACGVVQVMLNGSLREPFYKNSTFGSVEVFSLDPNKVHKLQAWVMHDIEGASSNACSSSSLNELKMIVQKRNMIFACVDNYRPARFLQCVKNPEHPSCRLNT
# Experimental: The in vivo efficacy of Compound 35 against the human CD38 enzyme was tested in aged mice after oral administration and determined by mass spec analysis of NAD+ metabolites levels in liver tissue. The two main CD38 substrates, NAD+ and NMN, and the 2 main byproducts of the CD38 enzymatic reaction, NAM and ADPR, were measured.
# Briefly, aged mice (male C57BL6/J, 22 months old) were fasted for 4 hr and compound 35 was administered via oral gavage at a concentration of 3 mg/kg and 10 mg/kg. Mice were humanely euthanized for liver tissue harvesting at 1-, 3-, and 6-hr post-dosing. A vehicle control (DMSO:Solutol: SBE-CD, 2:5:93, v/v) was included to assess baseline NAD+ metabolites levels.
# The procedure for tissue sample preparation and UPLC-MS/MS methods were adapted from Trammell et al. (2013) Compu. Struct. Biotechnol. J. […] (https://www.ncbi.nlm.nih.gov/pmc/articles/PMC3962138/). Briefly, frozen liver tissue was pulverized and resuspended in the extraction buffer (3:1 ethanol:10 mM aq. HEPES, pH 7.1). The samples were vortexed, sonicated briefly in a bath sonicator, and shaken at 55° C. for 3 min at 1,200 rpm. Samples were then centrifuged at 16,000×g for 10 min at 4° C., and the supernatant was dried by speedvac. The dried pellet was resuspended in 97% 10 mM ammonium acetate/3% acetonitrile, centrifuged at 16,000×g for 10 min at 4° C. and 2 μL was injected for LCMS analysis.
# The UPLC-MS/MS analysis to measure NAD+ metabolites was performed using a Vanquish UHPLC system and a Q Exactive Orbitrap mass spectrometer with H-ESI ion source both from Thermo Scientific. UPLC separation was performed on a Hypercarb (2.1×100 mm, 5 μm particle size, Thermo) column following the method described in Trammell et al. (2013). Acquisition was carried out in positive ion, Parallel Reaction Monitoring (PRM) mode and targeted […] (t-SIM). The Thermo Xcalibur QualBrowser system software (version 4.2.47) and Freestyle (version 1.8.51.0) softwares was used for the data processing. For relative fold change, peak areas were normalized with respective internal standards, normalized to weight of the tissue sample used, and calculated as fold change relative at 0 h timepoint/vehicle group.
# [3] = molecular target: T2, CD38; assay: LPS-induced inflammation in mice, gene expression analysis in spleen and liver; assay type: in vivo
compound,measurement,setting,value
"COc1cc(C(=O)Nc2ccnc(C(F)(F)F)c2)nc(-n2ccnc2)c1 [Compound 35, 6-(1H-imidazol-1-yl)-4-methoxy-N-(2-(trifluoromethyl)pyridin-4-yl)picolinamide]",IC50,[1],0.179 nM
same,ADPR levels in liver,[2]; single 3 mg/kg oral dose,decrease
same,NAD+ levels in liver,[2]; single 3 mg/kg oral dose,increase
same,NAM levels in liver,[2]; single 3 mg/kg oral dose,decrease
same,NMN levels in liver,[2]; single 3 mg/kg oral dose,increase
same,ADPR levels in liver,[2]; single 10 mg/kg oral dose,decrease
same,NAD+ levels in liver,[2]; single 10 mg/kg oral dose,increase
same,NAM levels in liver,[2]; single 10 mg/kg oral dose,decrease
same,NMN levels in liver,[2]; single 10 mg/kg oral dose,increase
"COCCOc1cc(C(=O)Nc2ccnc(C(F)(F)F)c2)nc(-n2ccnc2)n1 [Compound 39, 2-(1H-imidazol-1-yl)-6-(2-methoxyethoxy)-N-(2-(trifluoromethyl)pyridin-4-yl)pyrimidine-4-carboxamide]",CD38 expression in liver,"[3]; liver, 10 mg/kg and 30 mg/kg, 8 hour post LPS challenge",statistically significant decrease
same,IFNγ expression levels in liver,"[3]; liver, after LPS challenge",statistically significant decrease
same,IL-1β expression levels in liver,"[3]; liver, after LPS challenge",statistically significant decrease
same,IL-6 expression levels in liver,"[3]; liver, after LPS challenge",statistically significant decrease
same,IP-10 expression levels in liver,"[3]; liver, after LPS challenge",statistically significant decrease
same,MCP1 expression levels in liver,"[3]; liver, after LPS challenge",statistically significant decrease
same,MIP1α expression levels in liver,"[3]; liver, after LPS challenge",statistically significant decrease
same,MIP2 expression levels in liver,"[3]; liver, after LPS challenge",statistically significant decrease
same,RANTES expression levels in liver,"[3]; liver, after LPS challenge",statistically significant decrease
same,TNFα expression levels in liver,"[3]; liver, after LPS challenge",statistically significant decrease
same,CD38 expression in spleen,"[3]; spleen, after LPS challenge",no significant changes
same,IFNγ expression levels in spleen,"[3]; spleen, after LPS challenge",statistically significant decrease
same,IL-1β expression levels in spleen,"[3]; spleen, after LPS challenge",statistically significant decrease
same,IL-6 expression levels in spleen,"[3]; spleen, after LPS challenge",statistically significant decrease
same,IP-10 expression levels in spleen,"[3]; spleen, after LPS challenge",statistically significant decrease
same,MCP1 expression levels in spleen,"[3]; spleen, after LPS challenge",statistically significant decrease
same,MIP1α expression levels in spleen,"[3]; spleen, after LPS challenge",statistically significant decrease
same,MIP2 expression levels in spleen,"[3]; spleen, after LPS challenge",statistically significant decrease
same,RANTES expression levels in spleen,"[3]; spleen, after LPS challenge",statistically significant decrease
same,TNFα expression levels in spleen,"[3]; spleen, after LPS challenge",statistically significant decrease
